In patent publication US6794377B2, “Ortho, ortho-substituted nitrogen-containing bisaryl compounds, processes for their preparation, their use as medicaments, and pharmaceutical preparation comprising them” (Aventis Pharma Deutschland GmbH, priority 2000, dated 2004):
Like-named read-outs stand apart in the source and are kept apart here.

Biological target: T1, Kv1.5 channels from humans (Homo sapiens, UniProt P22460)
T1 construct: expressed in transfected cells; host or cells: Xenopus laevis oocytes injected with in vitro synthesized RNA
Assay: Kv1.5 currents in Xenopus oocytes, 2-microelectrode voltage clamp
Assay type: cell-based
Settings: human Kv1.5 expressed in Xenopus laevis oocytes, voltage jumps to 0 mV and 40 mV lasting 500 ms, room temperature, Hill equation
Experimental: Kv1.5 channels from humans were expressed in Xenopus oocytes. To this end, oocytes from Xenopus laevis were first isolated and defolliculated. RNA coding for Kv1.5 synthesized in vitro was then injected into these oocytes. After a Kv1.5 protein expression for 1-7 days, Kv1.5 currents were measured on the oocytes using the 2-microelectrode voltage clamp technique. The Kv1.5 channels were in this case as a rule activated using voltage jumps to 0 mV and 40 mV lasting 500 ms. The bath was rinsed using a solution of the following composition: NaCl 96 mM, KCl 2 mM, CaCl2 1.8 mM, MgCl2 1 mM, HEPES 5 mM (titrated with NaOH to pH 7.4). These experiments were carried out at room temperature. The following were employed for data acquisition and analysis: Gene clamp amplifier (Axon Instruments, Foster City, USA) and MacLab D/A converter and software (ADinstruments, Castle Hill, Australia). The substances according to the invention were tested by adding them to the bath solution in different concentrations. The effects of the substances were calculated as the percentage inhibition of the Kv1.5 control current which was obtained when no substance was added to the solution. The data were then extrapolated using the Hill equation in order to determine the inhibition concentrations IC50 for the respective substances.

T1 sequence (P22460 whole entry): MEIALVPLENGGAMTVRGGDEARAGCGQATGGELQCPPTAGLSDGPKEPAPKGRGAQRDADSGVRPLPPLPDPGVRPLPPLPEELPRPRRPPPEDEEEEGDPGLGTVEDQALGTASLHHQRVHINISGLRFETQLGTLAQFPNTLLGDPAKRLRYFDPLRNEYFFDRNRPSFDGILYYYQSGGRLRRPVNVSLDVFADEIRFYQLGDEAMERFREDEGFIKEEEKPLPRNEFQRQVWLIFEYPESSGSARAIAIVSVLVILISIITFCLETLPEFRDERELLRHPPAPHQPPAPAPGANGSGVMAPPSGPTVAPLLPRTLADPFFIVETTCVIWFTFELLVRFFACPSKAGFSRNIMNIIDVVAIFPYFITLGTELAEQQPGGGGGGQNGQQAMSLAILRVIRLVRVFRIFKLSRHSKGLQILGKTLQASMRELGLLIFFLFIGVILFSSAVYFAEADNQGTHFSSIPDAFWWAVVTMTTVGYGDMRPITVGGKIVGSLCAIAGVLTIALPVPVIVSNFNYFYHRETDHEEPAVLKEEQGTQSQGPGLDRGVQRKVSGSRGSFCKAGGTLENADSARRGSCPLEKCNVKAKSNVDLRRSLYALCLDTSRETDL

Row | IC50 (read-out: IC50) [µM] | IC50 | Structure (SMILES)
1 | < 100 |  | CC(C)CCNC(=O)c1nccnc1-c1ccccc1CNC(=O)OC(C)(C)C [Example 7]
2 | < 100 |  | CC(C)(C)OC(=O)NCc1ccccc1-c1nccnc1C(=O)NCc1ccc(F)cc1F [Example 8]
3 |  | inactive | CC(C)C[C@H](NC(=O)c1nccnc1-c1ccccc1CNC(=O)OC(C)(C)C)C(N)=O [Example 11]
4 | < 100 |  | COc1ccc(NC(=O)c2nccnc2-c2ccccc2CNC(=O)OC(C)(C)C)cc1 [Example 12]
5 | 2.6 |  | CC(C)CCNC(=O)c1ncccc1-c1ccccc1CNC(=O)OCc1ccccc1 [Example 18, Benzyl {2-[2-(3-methylbutylcarbamoyl)pyridin-3-yl]benzyl}carbamate]
6 | 0.6 |  | C[C@H](OC(=O)NCc1ccccc1-c1cccnc1C(=O)NCCc1ccccn1)c1ccccc1 [Example 19]
7 | 1.2 |  | CC(C)C[C@H](NC(=O)c1ncccc1-c1ccccc1CNC(=O)O[C@@H](C)c1ccccc1)C(N)=O [Example 20]
8 | 2 |  | COc1ccc(NC(=O)c2ncccc2-c2ccccc2CNC(=O)O[C@@H](C)c2ccccc2)cc1 [Example 21]
9 | 0.4 |  | C[C@H](OC(=O)NCc1ccccc1-c1cccnc1C(=O)NCC1CC1)c1ccccc1 [Example 23]
10 | < 100 |  | CC(C)CCNC(=O)c1ccncc1-c1ccccc1CNC(=O)OCc1ccccc1 [Example 26]
11 | 9 |  | CC(C)CCNC(=O)c1cccnc1-c1ccccc1CNC(=O)OCc1ccccc1 [Example 28]
12 | < 100 |  | CC(C)C[C@H](NC(=O)c1nccnc1-c1ccccc1CNC(=O)O[C@@H](C)c1ccccc1)C(N)=O [Example 31]
13 | 1.7 |  | C[C@H](OC(=O)NCc1cnccc1-c1ccccc1C(=O)NCC1CC1)c1ccccc1 [Example 33]
14 | 4.7 |  | C[C@H](OC(=O)NCc1cnccc1-c1ccccc1C(=O)NCCc1cccnc1)c1ccccc1 [Example 34]
15 | 0.4 |  | C[C@H](CC(=O)NCc1ccccc1-c1cccnc1C(=O)NCC1CC1)c1ccccc1 [Example 35, 3-{2-(R)-[(3-Phenylbutyrylamino)methyl]phenyl}pyridine-2-carboxylate cyclopropylmethylamide]
16 | < 100 |  | COc1ccc(CC(=O)NCc2ccccc2-c2cccnc2C(=O)N[C@@H](CC(C)C)C(N)=O)cc1 [Example 39]
17 | < 100 |  | CCOc1ccc(C(=O)NCc2ccccc2-c2cccnc2C(=O)N[C@@H](CC(C)C)C(N)=O)cc1 [Example 40]
18 | < 100 |  | COc1ccc(CCC(=O)NCc2ccccc2-c2cccnc2C(=O)N[C@@H](CC(C)C)C(N)=O)cc1 [Example 41]
19 | 0.9 |  | C[C@H](CC(=O)NCc1ccccc1-c1cccnc1C(=O)NCCc1ccccn1)c1ccccc1 [Example 49]
20 |  | inactive | COc1ccc(CC(=O)NCc2ccccc2-c2nccnc2C(=O)NCCc2ccccn2)cc1 [Example 53]
21 | 0.7 |  | C[C@H](OC(=O)NCc1ccccc1-c1cccnc1C(=O)NCCc1cccnc1)c1ccccc1 [Example 58]
22 | < 100 |  | C[C@H](CC(=O)NCc1ccccc1-c1cccnc1C(=O)NC[C@@H](C)O)c1ccccc1 [Example 67]

Second part, the molecule before the results:

Row | Structure (SMILES) | IC50 (read-out: IC50) [µM] | IC50
23 | CC(C)CCNC(=O)c1ccncc1-c1ccccc1CNC(=O)OC(C)(C)C [Example 3] | < 100 | 
24 | CC(C)(C)OC(=O)NCc1ccccc1-c1cnccc1C(=O)NCc1ccc(F)cc1F [Example 4] | < 100 | 
25 | CC(C)CCNC(=O)c1cccnc1-c1ccccc1CNC(=O)OC(C)(C)C [Example 5] | < 100 | 
26 | CC(C)(C)OC(=O)NCc1ccccc1-c1ncccc1C(=O)NCc1ccc(F)cc1F [Example 6] | < 100 | 
27 | CC(C)CCNC(=O)c1ccccc1-c1ccncc1CNC(=O)OC(C)(C)C [Example 9] | < 100 | 
28 | O=C(NCc1ccccc1-c1ncccc1C(=O)NCc1ccc(F)cc1F)OCc1ccccc1 [Example 29] | 7.6 | 
29 | COc1ccc(CC(=O)NCc2ccccc2-c2cccnc2C(=O)NCCc2ccccn2)cc1 [Example 36] | < 100 | 
30 | CCOc1ccc(C(=O)NCc2ccccc2-c2cccnc2C(=O)NCCc2ccccn2)cc1 [Example 37] | < 100 | 
31 | COc1ccc(CCC(=O)NCc2ccccc2-c2cccnc2C(=O)NCCc2ccccn2)cc1 [Example 38] | 5.6 | 
32 | COc1ccc(CC(=O)NCc2ccccc2-c2cccnc2C(=O)Nc2ccc(OC)cc2)cc1 [Example 42] | < 100 | 
33 | CCOc1ccc(C(=O)NCc2ccccc2-c2cccnc2C(=O)Nc2ccc(OC)cc2)cc1 [Example 43] | < 100 | 
34 | COc1ccc(CCC(=O)NCc2ccccc2-c2cccnc2C(=O)Nc2ccc(OC)cc2)cc1 [Example 44] | 6.7 | 
35 | CC(CC(=O)NCc1ccccc1-c1cccnc1C(=O)NCCc1ccccn1)c1ccc(F)cc1 (centres unmarked) [Example 45] | 0.5 | 
36 | C[C@H](CC(=O)NCc1ccccc1-c1cccnc1C(=O)NCc1cccnc1)c1ccccc1 [Example 46] | 2.7 | 
37 | CC(CC(=O)NCc1ccccc1-c1cccnc1C(=O)NCC1CC1)c1ccc(F)cc1 (centres unmarked) [Example 47] | 3.1 | 
38 | Cc1onc(-c2ccccc2)c1C(=O)NCc1ccccc1-c1cccnc1C(=O)NCC1CC1 [Example 48] | 2.4 | 
39 | COc1ccc(CC(=O)NCc2ccccc2-c2ncccc2C(=O)NCc2ccc(F)cc2F)cc1 [Example 51] | < 100 | 
40 | CC(CC(=O)NCc1cnccc1-c1ccccc1C(=O)NCC1CC1)c1ccc(F)cc1 (centres unmarked) [Example 54] | < 100 | 
41 | O=C(Cc1ccc(OC(F)(F)F)cc1)NCc1cnccc1-c1ccccc1C(=O)NCC1CC1 [Example 55] | 3.8 | 
42 | O=C(Cc1ccc(OC(F)(F)F)cc1)NCc1cnccc1-c1ccccc1C(=O)NCCc1cccnc1 [Example 56] | 6.1 | 
43 | CC(CC(=O)NCc1ccccc1-c1cccnc1C(=O)NCCc1cccnc1)c1ccc(F)cc1 (centres unmarked) [Example 59] | 3.2 | 
44 | O=C(CCc1cccc(OC(F)(F)F)c1)NCc1ccccc1-c1cccnc1C(=O)NCCc1cccnc1 [Example 60] | 3.1 | 
45 | CC(C)(C(=O)NCc1ccccc1-c1cccnc1C(=O)NCC1CC1)c1ccc(Cl)cc1 [Example 61] | 1.7 | 
46 | O=C(CCc1cccc(OC(F)(F)F)c1)NCc1ccccc1-c1cccnc1C(=O)NCC1CC1 [Example 62] | 1.8 | 
47 | O=C(CCc1cccc(OC(F)(F)F)c1)NCc1ccccc1-c1cccnc1C(=O)NCCc1ccccn1 [Example 63] | 1.8 | 
48 | CC(C)(C(=O)NCc1ccccc1-c1cccnc1C(=O)NCCc1ccccn1)c1ccc(Cl)cc1 [Example 64] | 0.9 | 
49 | C[C@@H](O)CNC(=O)c1ncccc1-c1ccccc1CNC(=O)C(C)(C)c1ccc(Cl)cc1 [Example 65] | < 100 | 
50 | C[C@@H](O)CNC(=O)c1ncccc1-c1ccccc1CNC(=O)CCc1cccc(OC(F)(F)F)c1 [Example 66] | < 100 | 
